Values joined by “and” are separate entries in the source; they are usually repeats but may differ in a detail not shown here. Identical values can stand only once.

Test [1] addresses T1, Human CYP17 (Homo sapiens, UniProt P05093).
T1 construct: made in house; host or cells: Escherichia coli (5,000 g sediment of the homogenate)
T1 sequence (P05093 1-508): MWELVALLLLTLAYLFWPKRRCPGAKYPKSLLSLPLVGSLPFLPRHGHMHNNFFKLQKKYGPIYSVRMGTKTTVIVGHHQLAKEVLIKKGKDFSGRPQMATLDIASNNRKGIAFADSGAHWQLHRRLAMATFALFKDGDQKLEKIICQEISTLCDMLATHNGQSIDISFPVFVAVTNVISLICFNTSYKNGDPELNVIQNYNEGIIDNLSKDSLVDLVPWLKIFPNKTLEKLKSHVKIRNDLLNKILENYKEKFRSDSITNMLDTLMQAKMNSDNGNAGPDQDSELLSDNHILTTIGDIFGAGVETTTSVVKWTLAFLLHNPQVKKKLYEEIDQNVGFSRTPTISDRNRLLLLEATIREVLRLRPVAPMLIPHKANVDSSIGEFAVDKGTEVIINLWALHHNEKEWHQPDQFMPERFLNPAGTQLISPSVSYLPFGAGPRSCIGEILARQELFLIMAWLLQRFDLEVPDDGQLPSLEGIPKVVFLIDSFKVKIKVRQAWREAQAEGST
Also on record: method as in Sergejew and Hartmann, 1994. Particulars: reference inhibitor; ref Sergejew and Hartmann, 1994; cited from earlier work.

Test [2] deals with T1, Human CYP17. As to the kind of experiment: CYP17 inhibition assay. The format is biochemical. Particulars: at 10 μM concentration; for CYP17 inhibition: human CYP17 from Escherichia coli, n.i. = not inhibited. As for the experimental part: The inhibition of CYP17 was investigated using the 5,000 g sediment of homogenized Escherichia coli (Ehmer et al., [2000]). Human CYP17 along with NADPH-P450 reductase was used to perform the assay as described previously. The incubation time for the reaction was 30 min at 37°C. The reaction was started by adding [^3H]-progesterone, and was quenched with 1 M HCl. The reaction mixture was extracted twice with ethyl acetate at 4°C in order to avoid impurities. The samples were dried, prepared with methanol, and analyzed with radio-HPLC. DSMO was used as negative control.

The target in test [3] is T2, human CYP11B1 (Homo sapiens, UniProt P15538).
T2 construct: expressed in transfected cells; host or cells: hamster V79MZh cells
T2 sequence (P15538 25-503): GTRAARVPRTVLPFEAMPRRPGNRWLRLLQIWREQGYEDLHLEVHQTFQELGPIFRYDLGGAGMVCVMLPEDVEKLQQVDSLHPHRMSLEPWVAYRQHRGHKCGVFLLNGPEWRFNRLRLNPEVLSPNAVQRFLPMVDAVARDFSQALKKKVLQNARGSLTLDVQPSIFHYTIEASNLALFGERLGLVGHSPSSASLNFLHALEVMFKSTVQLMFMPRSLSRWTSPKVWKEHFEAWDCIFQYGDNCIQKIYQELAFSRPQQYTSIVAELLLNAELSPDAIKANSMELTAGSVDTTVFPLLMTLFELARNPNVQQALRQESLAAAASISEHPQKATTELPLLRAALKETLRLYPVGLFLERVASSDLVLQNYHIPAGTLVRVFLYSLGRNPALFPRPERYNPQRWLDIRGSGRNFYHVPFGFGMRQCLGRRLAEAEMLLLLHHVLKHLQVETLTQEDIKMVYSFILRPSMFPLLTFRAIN
As to the kind of experiment: CYP11B1 inhibition assay in V79MZh cells. The class given is cell-based. Particulars: for inhibition at 10 µM: at 10 μM concentration, V79MZh cells; for IC50: human CYP11B1 expressed in hamster V79MZh cells, mean of at least three experiments. On the procedure: (§1) The selected potential inhibitors were dissolved in DMSO at a concentration of 10 mM to generate stock solutions. Various aliquots were then made from fresh stock solutions and each aliquot was tested only once.
(§2) The selected hits were evaluated for their inhibition of human CYP11B1 and CYP11B2 enzymes expressed in hamster V79MZh cells. Approximately […] V79MZh cells were cultured in 24-well cell culture plates for 24 h. The area of each well was 1.9 cm^2. The cells were exposed to various concentrations of inhibitor solutions. The reactions were started by incubating the cells with [^3H]11-deoxycorticosterone. The incubation time for CYP11B1 cells was 15–60 and 50–120 min for CYP11B2 cells. The reactions were stopped by extracting the supernatant with cold ethyl acetate at 4°C. Samples were mixed (10 min), and centrifuged (12,500 rpm). The organic (upper) layer was separated into fresh Eppendorf tubes and dried. The steroids were re-dissolved in methanol-water (65–35%) and were analyzed by radio-HPLC (Denner et al., [1995a]; Ehmer et al., [2002]).

The target in test [4] is T3, human CYP11B2 (Homo sapiens, UniProt P19099).
T3 construct: expressed in transfected cells; host or cells: hamster V79MZh cells
T3 sequence (P19099 25-503): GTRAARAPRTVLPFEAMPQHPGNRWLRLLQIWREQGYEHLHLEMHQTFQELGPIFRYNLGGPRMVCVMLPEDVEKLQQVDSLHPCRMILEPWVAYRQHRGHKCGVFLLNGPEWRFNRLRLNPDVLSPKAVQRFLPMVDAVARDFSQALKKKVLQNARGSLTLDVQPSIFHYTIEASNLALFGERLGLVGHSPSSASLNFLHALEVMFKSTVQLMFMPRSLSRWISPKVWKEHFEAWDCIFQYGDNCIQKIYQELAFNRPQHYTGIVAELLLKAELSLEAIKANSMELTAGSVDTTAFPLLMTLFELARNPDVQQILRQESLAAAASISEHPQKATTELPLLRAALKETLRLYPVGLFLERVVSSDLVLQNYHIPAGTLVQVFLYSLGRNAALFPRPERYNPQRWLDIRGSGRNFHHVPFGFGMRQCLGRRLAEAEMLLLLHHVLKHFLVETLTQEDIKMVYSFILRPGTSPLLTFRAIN
As to the kind of experiment: CYP11B2 inhibition assay in V79MZh cells. The format is cell-based. Particulars: for inhibition at 10 µM: at 10 μM concentration, V79MZh cells; for IC50: human CYP11B2 expressed in hamster V79MZh cells, mean of at least three experiments. As for the experimental part: as §1, §2

On to `C[C@]12CC[C@H](O)CC1=CC[C@@H]1[C@@H]2CC[C@]2(C)C(c3cccnc3)=CC[C@@H]12` [Abiraterone], for which, in test [1], the IC50 – broadly, the midpoint of a concentration-inhibition curve – is 100 nM.
`CC(C)CC(=O)Nc1ccc(Cc2ccncc2)cc1` [Compound 8]: in test [2], the inhibition (in general, the share of the control response that was lost under treatment) at 10 µM was no more than 3% and the CYP17 inhibition entry is reported as “n.i.^e”. In test [3], this compound returned an inhibition at 10 µM greater than 50% and an IC50 of 3040 ± 720 nM. Moreover, in test [4], the inhibition at 10 µM is greater than 50% and 2770 ± 480 nM corresponded to half-maximal inhibition (IC50).
Consider `CC(OCc1ccc(F)cc1)n1ccnc1` (centres unmarked) [Compound 9], for which, in test [2], the inhibition at 10 µM was no more than 3% and the CYP17 inhibition result is on record as “n.i”. Also, in test [3], the inhibition at 10 µM was greater than 50% and the IC50 was found to be 210 ± 40 nM. In test [4], this compound yielded an inhibition at 10 µM greater than 50% and an IC50 of 80 ± 5 nM.
Take `COc1cc(Cl)c(S(=O)(=O)n2ccnc2)cc1Cl` [Compound 10]: in test [2], the inhibition at 10 µM is no more than 3% and the CYP17 inhibition result is on record as “n.i”. In test [3], this compound returned an inhibition at 10 µM greater than 50% and an IC50 of 130 ± 20 nM. Moreover, in test [4], the inhibition at 10 µM was greater than 50% and the IC50 turned out to be 110 ± 20 nM.
Consider `CN(C)C(c1ccccc1)c1nnnn1-c1ccc(Cl)cc1` (centres unmarked) [Compound 11], for which the “selectivity factor for CYP11B1 inhibition over CYP11B2” value in test [3] (from IC50 values) came out at 6. Besides, the IC50 was 2500 nM and 2520 nM in test [3]; 15600 ± 8450 nM in test [4].
As to `c1ccc2c(-c3nn4cnnc4s3)cccc2c1` [Compound 12], the values for the inhibition at 10 µM in test [2] and in test [3] were no more than 3% and 33 ± 6%, respectively. Also, in test [2], the CYP17 inhibition entry is “n.i”. Besides, in test [4], the IC50 is 1100 nM and 1120 nM.

Source of the values: PMC5742115, “Pharmacophore Modeling and in Silico/in Vitro Screening for Human Cytochrome P450 11B1 and Cytochrome P450 11B2 Inhibitors” (Frontiers in Chemistry, 2017).
